In this test the test system is bacteria. Put plainly: Binding of targeting peptides to microorganisms (Table 3). The note with it: preferably 1x PBS; for Target(s) (microorganism bound by the targeting peptide): peptide binding in aqueous buffers varied by peptide solubility; for Target(s): microorganism the targeting peptide binds, binding in aqueous buffers that varied with peptide solubility.

Entries after “also recorded” stand apart in the source; their conditions may differ.

With “1T-105 (GEGLPPPVLHLPPPRMSGR; Peptide with targeting and/or antimicrobial activity) [Peptide 1T-105]”, the “Target(s) (microorganism bound by the targeting peptide)” value is “S. epidermidis; also recorded: S. gordonii; also recorded: S. mitis; also recorded: S. mutans; also recorded: S. oralis”.

“1T-106 (DALRRSRSQGRRHR; Peptide with targeting and/or antimicrobial activity) [Peptide 1T-106]”: the “Target(s) (microorganism bound by the targeting peptide)” value was “S. gordonii; also recorded: S. mitis; also recorded: S. mutans; also recorded: S. oralis; also recorded: S. salivarious”.

As to “1T-107 (SPVPRFTAVGGVSRGSP; Peptide with targeting and/or antimicrobial activity) [Peptide 1T-107]”, the “Target(s) (microorganism bound by the targeting peptide)” value is “A. naeslundii; also recorded: S. epidermidis; also recorded: S. gordonii; also recorded: S. mitis; also recorded: S. mutans; also recorded: S. oralis; also recorded: S. salivarious; also recorded: S. sanguinis”. Still for that read-out and setting: as for “1T-108 (WGPLGPERPLW; Peptide with targeting and/or antimicrobial activity) [Peptide 1T-108]”, the entry is “S. gordonii; also recorded: S. mitis; also recorded: S. mutans; also recorded: S. oralis; also recorded: S. salivarious; also recorded: S. sanguinis”.

On to “1T-109 (VTTNVRQGAGS; Peptide with targeting and/or antimicrobial activity) [Peptide 1T-109]”, for which the “Target(s) (microorganism bound by the targeting peptide)” value is recorded as “A. naeslundii; also recorded: S. epidermidis; also recorded: S. gordonii; also recorded: S. mitis; also recorded: S. mutans; also recorded: S. oralis; also recorded: S. salivarious; also recorded: S. sanguinis”. Consider “1T-110 (LAAKTAVCVGRAFM; Peptide with targeting and/or antimicrobial activity) [Peptide 1T-110]”, for which the “Target(s) (microorganism bound by the targeting peptide)” value is “A. naeslundii; also recorded: P. gingivalis; also recorded: S. epidermidis; also recorded: S. gordonii; also recorded: S. mitis; also recorded: S. mutans; also recorded: S. oralis; also recorded: S. sanguinis”. On to “1T-112 (SDNDGKLILGTSQ; Peptide with targeting and/or antimicrobial activity) [Peptide 1T-112]”, for which the “Target(s) (microorganism bound by the targeting peptide)” value is recorded as “S. gordonii”.

In the case of “1T-113 (HGAHQRTGQRLHHHRGRTVSGCRQNPVAGVDPDEHR; Peptide with targeting and/or antimicrobial activity) [Peptide 1T-113]”, the “Target(s) (microorganism bound by the targeting peptide)” value is reported as “S. mitis”. Still for that read-out and setting: to “1T-114 (RQAPGPGLVTITAACSAPGSRSR; Peptide with targeting and/or antimicrobial activity) [Peptide 1T-114]” belongs “A. naeslundii; also recorded: P. gingivalis; also recorded: S. epidermidis; also recorded: S. gordonii; also recorded: S. mitis; also recorded: S. mutans; also recorded: S. oralis; also recorded: S. sanguinis”.

Regarding “1T-117 (GPGVVGPAPFSRLPAHALNL; Peptide with targeting and/or antimicrobial activity) [Peptide 1T-117]”, the “Target(s) (microorganism bound by the targeting peptide)” value was “S. mutans”.

With “1T-119 (SPATQKAPTRAQPSRAPVQDCGDGRPTAAPDDVERLSPR; Peptide with targeting and/or antimicrobial activity) [Peptide 1T-119]”, the “Target(s) (microorganism bound by the targeting peptide)” value is “S. gordonii; also recorded: S. mitis; also recorded: S. mutans; also recorded: S. oralis”. On the same count and under the same terms, to “1T-121 (FAKETGFGIGGAQEGWWIIADIYGPNPF; Peptide with targeting and/or antimicrobial activity) [Peptide 1T-121]” belongs “S. gordonii; also recorded: S. mitis; also recorded: S. mutans; also recorded: S. oralis; also recorded: S. salivarious; also recorded: S. sanguinis”; to “1T-122 (GAIPDPVTHRVDWEEDHQTRPSR; Peptide with targeting and/or antimicrobial activity) [Peptide 1T-122]”, “S. mitis”; to “1T-123 (LVRRNAVAGRSDGLAGAEQLDLVRLQGVL; Peptide with targeting and/or antimicrobial activity) [Peptide 1T-123]”, “S. gordonii”. “1T-124 (LFDERNKIA; Peptide with targeting and/or antimicrobial activity) [Peptide 1T-124]”: the “Target(s) (microorganism bound by the targeting peptide)” value was “S. mitis; also recorded: S. mutans; also recorded: S. oralis”. With “1T-125 (DAITGGNPPLSDTDGLRP; Peptide with targeting and/or antimicrobial activity) [Peptide 1T-125]”, the “Target(s) (microorganism bound by the targeting peptide)” value is on record as “S. epidermidis; also recorded: S. gordonii; also recorded: S. mutans; also recorded: S. oralis”. Same read-out and setting: to “1T-126 (QGLARPVLRRIPL; Peptide with targeting and/or antimicrobial activity) [Peptide 1T-126]” belongs “S. gordonii; also recorded: S. mitis; also recorded: S. mutans”; to “1T-139 (AVAGAAVGALLGNDARSTAVGAAIGGALGAGAGELTKNK; Peptide with targeting and/or antimicrobial activity) [Peptide 1T-139]”, “A. naeslundii; also recorded: S. gordonii; also recorded: S. mitis; also recorded: S. mutans; also recorded: S. oralis”. On the same count and under the same terms, as for “1T-141 (KKFIILLFILVQGLIFSATKTLSDIIAL; Peptide with targeting and/or antimicrobial activity) [Peptide 1T-141]”, the entry is “F. nucleatum; also recorded: P. gingivalis; also recorded: S. epidermidis; also recorded: S. gordonii; also recorded: S. mitis; also recorded: S. mutans; also recorded: S. oralis; also recorded: S. sanguinis”; as for “1T-145 (VEAGKRNISLENIEKISKGLGISISELFKYIEEGEDKIG; Peptide with targeting and/or antimicrobial activity) [Peptide 1T-145]”, “S. mitis; also recorded: S. mutans; also recorded: S. oralis”. In the case of “1T-154 (YFSFLEIVGMARR; Peptide with targeting and/or antimicrobial activity) [Peptide 1T-154]”, the “Target(s) (microorganism bound by the targeting peptide)” value is on record as “P. gingivalis”. The same measure, in the same setting: to “1T-159 (IFSLHHFALICSEMGTFAVSKRAKYKWEVL; Peptide with targeting and/or antimicrobial activity) [Peptide 1T-159]” belongs “P. gingivalis”. Still for that read-out and setting: to “1T-170 (AYGKVFSMDIMLSENDKLIVLRISHHSAWH; Peptide with targeting and/or antimicrobial activity) [Peptide 1T-170]” belongs “P. gingivalis”; to “1T-177 (GTNVPTQILGYSREERFDYEPAPEQR; Peptide with targeting and/or antimicrobial activity) [Peptide 1T-177]”, “P. gingivalis; also recorded: S. gordonii; also recorded: S. mitis; also recorded: S. mutans; also recorded: S. oralis; also recorded: S. salivarious; also recorded: S. sanguinis”; to “1T-185 (HYHFLLEFGFHKGDYLE; Peptide with targeting and/or antimicrobial activity) [Peptide 1T-185]”, “A. naeslundii; also recorded: F. nucleatum; also recorded: P. gingivalis”. “1T-188 (HRKDVYKK; Peptide with targeting and/or antimicrobial activity) [Peptide 1T-188]”: the “Target(s)” value is given as “S. sanguinis”. On the same count and under the same terms, as for “1T-192 (ILVLLALQVELDSKFQY; Peptide with targeting and/or antimicrobial activity) [Peptide 1T-192]”, the entry is “S. sanguinis”. On the same count and under the same terms, to “1T-193 (LMIFDKHANLKYKYGNRSFGVEAIM; Peptide with targeting and/or antimicrobial activity) [Peptide 1T-193]” belongs “S. sanguinis”; to “1T-195 (AASGFTYCASNGVWHPY; Peptide with targeting and/or antimicrobial activity) [Peptide 1T-195]”, “S. mutans”. On the same count and under the same terms, to “1T-196 (KPEKEKLDTNTLMKVVNKALSLFDRLLIKFGA; Peptide with targeting and/or antimicrobial activity) [Peptide 1T-196]” belongs “F. nucleatum; also recorded: S. sanguinis”. For the substance “1T-198 (MPVSKKRYMLSSAYATALGICYGQVATDEKESEITAIPDLLDYLSVEEYLL; Peptide with targeting and/or antimicrobial activity) [Peptide 1T-198]”, the “Target(s)” value is listed as “P. gingivalis; also recorded: S. epidermidis; also recorded: S. gordonii; also recorded: S. mitis; also recorded: S. mutans; also recorded: S. oralis; also recorded: S. sanguinis”. Still for that read-out and setting: as for “1T-199 (RAGRIKKLSQKEAEPFEN; Peptide with targeting and/or antimicrobial activity) [Peptide 1T-199]”, the entry is “S. sanguinis”; as for “1T-201 (KRKHENVIVAEEMRVIKN; Peptide with targeting and/or antimicrobial activity) [Peptide 1T-201]”, “S. sanguinis”; as for “1T-207 (SPLEKYGTGSMTALTFLLGCCLLVLSKKSR; Peptide with targeting and/or antimicrobial activity) [Peptide 1T-207]”, “F. nucleatum; also recorded: S. sanguinis”. The same measure, in the same setting: as for “1T-215 (VCFKDISVFLSPFRGQEVLFCGKAKHSLIYVIGT; Peptide with targeting and/or antimicrobial activity) [Peptide 1T-215]”, the entry is “S. sanguinis”; as for “1T-216 (FFLNVIAIRIPHF; Peptide with targeting and/or antimicrobial activity) [Peptide 1T-216]”, “S. sanguinis”; as for “1T-217 (MLSNVLSRSVVSPNVDIPNSMVILSPLLISISNYH; Peptide with targeting and/or antimicrobial activity) [Peptide 1T-217]”, “F. nucleatum; also recorded: S. sanguinis”. Take “1T-218 (KLIFAALGLVFLLIGLRDSRSK; Peptide with targeting and/or antimicrobial activity) [Peptide 1T-218]”: the “Target(s)” value is given as “F. nucleatum; also recorded: S. sanguinis”.

The record behind these values is patent US9597407B2, “Targeted antimicrobial moieties” (C3 Jian, Inc., priority 2009, dated 2017).
